This data set is described as follows: photoluminescence quantum yield (fraction); solvent given as SMILES.

With `CCOC(=O)CC[N+]1=c2cc3c(cc2CCC1)=Cc1c(c2ccc(N(C)C)cc2oc1=O)O3`, the photoluminescence quantum yield by setting is: (in CC#N) 0.217; (in CO) 0.152; (in ClCCl) 0.469; (in O) 0.03.
For the molecule `C(S/C=C/c1ccc(/C=C/SC=C2CCCCCC2)cc1)=C1CCCCCC1`, the photoluminescence quantum yield (in ClCCl) came out at 0.109.
Turning to `COc1ccc(-c2nc3ccccc3oc2=O)cc1`, the photoluminescence quantum yield (in c1ccccc1) was 0.076.
